{"source": "paper PMC11364775", "about": "“Ion occupancy of the selectivity filter controls opening of a cytoplasmic gate in the K2P channel TALK-2” (Nature Communications, 2024)", "key": {"[1]": {"target": "T1, WT TREK-2 channels (human K2P10.1) (Homo sapiens, UniProt P57789)", "T1 construct": "expressed in transfected cells; host or cells: Xenopus laevis oocytes (cRNA injection), excised inside-out patches", "T1 sequence (P57789 1-538)": "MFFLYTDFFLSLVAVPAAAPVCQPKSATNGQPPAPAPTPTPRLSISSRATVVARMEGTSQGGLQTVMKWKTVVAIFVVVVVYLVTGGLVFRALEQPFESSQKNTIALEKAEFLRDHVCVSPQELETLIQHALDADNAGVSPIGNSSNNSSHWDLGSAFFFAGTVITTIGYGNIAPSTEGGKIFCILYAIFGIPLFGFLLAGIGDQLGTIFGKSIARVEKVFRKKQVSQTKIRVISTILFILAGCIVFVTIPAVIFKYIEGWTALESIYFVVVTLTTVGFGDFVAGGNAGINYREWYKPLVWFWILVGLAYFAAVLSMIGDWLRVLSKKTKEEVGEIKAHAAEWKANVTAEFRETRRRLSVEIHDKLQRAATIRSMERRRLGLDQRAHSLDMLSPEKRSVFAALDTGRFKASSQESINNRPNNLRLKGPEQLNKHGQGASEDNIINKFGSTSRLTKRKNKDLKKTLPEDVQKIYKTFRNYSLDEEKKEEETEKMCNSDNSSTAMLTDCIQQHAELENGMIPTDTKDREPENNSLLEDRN", "test": "Tail current deactivation kinetics with pore blocker (inside-out patch)", "format": "cell-based"}, "WT TREK-2 channels": {"target": "T2, WT TREK-2 channels (Homo sapiens, UniProt P57789)", "T2 construct": "expressed in transfected cells; host or cells: Xenopus laevis oocytes (cRNA injection), excised inside-out patches", "T2 sequence (P57789 1-538)": "T1 sequence (P57789 1-538)", "test": "Conductance-voltage (G-V) curves from tail currents, V1/2 (intracellular Rb+)", "format": "cell-based", "settings": "for Normalized current: TREK-2 WT + 0.1 mM TPenA", "description": "The voltage-dependent activation mechanism of the SF gate in K2P channels allows to estimate the electrical work (ΔG = zFΔV1/2) required for pore opening by fitting the G–V curve to a Boltzmann equation. […] The open state represents the situation of both gates being simultaneously open but voltage can only exert force on the SF gate that functions as voltage sensor. […] We further tested whether mutations that open the lower gate (L262A and L264A) would affect the extracellular pH sensitivity. […] We further explored this concept of allosteric coupling using the mutations identified in the functional alanine screen of TM2 and TM4. […]\nConductance-voltage (G–V) relationships were determined from tail currents recorded at a holding potential (VH) of −80 mV after 300 ms depolarizing steps as indicated in the respective figure legend. Data were analyzed with a single Boltzmann fit following Eq. 6:6 GV=Imax/1+e^V−V1/2/slope+Ibase where V1/2 represents the voltage of half-maximal activation, s is the slope factor and Imax and Ibase represent the upper and lower asymptotes. Under appropriate experimental conditions, you can use slope to calculate the valence (charge) of the ion moving across the channel. Slope equals R * T/ z * F where R is the universal gas constant, T is temperature in K, F is the Faraday constant, and z is the valence."}}, "data": [{"smiles": "CCCCC[N+](CCCCC)(CCCCC)CCCCC", "note": "[TPenA, Tetra-pentyl-ammonium chloride]", "values": [{"measurement": "effect of TPenA inhibition on tail current kinetics", "setting": "[1]; TREK-2", "value": "no effect"}, {"measurement": "deactivation time constant τ of tail currents", "setting": "[1]; intracellular Rb+ with 50 µM TPenA", "value": "11.2 ± 1.4", "unit": "ms"}, {"measurement": "effect of TPenA on the G-V curve", "setting": "WT TREK-2 channels; TREK-2, intracellular Rb+", "value": "not affected"}, {"measurement": "Normalized current", "setting": "WT TREK-2 channels; Voltage 0.000", "value": 0.142}, {"measurement": "Normalized current", "setting": "WT TREK-2 channels; Voltage 0.005", "value": 0.177}, {"measurement": "Normalized current", "setting": "WT TREK-2 channels; Voltage 0.010", "value": 0.238}, {"measurement": "Normalized current", "setting": "WT TREK-2 channels; Voltage 0.015", "value": 0.307}, {"measurement": "Normalized current", "setting": "WT TREK-2 channels; Voltage 0.020", "value": 0.404}, {"measurement": "Normalized current", "setting": "WT TREK-2 channels; Voltage 0.025", "value": 0.485}, {"measurement": "Normalized current", "setting": "WT TREK-2 channels; Voltage 0.030", "value": 0.577}, {"measurement": "Normalized current", "setting": "WT TREK-2 channels; Voltage 0.035", "value": 0.667}, {"measurement": "Normalized current", "setting": "WT TREK-2 channels; Voltage 0.040", "value": 0.719}, {"measurement": "Normalized current", "setting": "WT TREK-2 channels; Voltage 0.045", "value": 0.784}, {"measurement": "Normalized current", "setting": "WT TREK-2 channels; Voltage 0.050", "value": 0.838}, {"measurement": "Normalized current", "setting": "WT TREK-2 channels; Voltage 0.055", "value": 0.851}, {"measurement": "Normalized current", "setting": "WT TREK-2 channels; Voltage 0.060", "value": 0.883}, {"measurement": "Normalized current", "setting": "WT TREK-2 channels; Voltage 0.065", "value": 0.906}, {"measurement": "Normalized current", "setting": "WT TREK-2 channels; Voltage 0.070", "value": 0.921}, {"measurement": "Normalized current", "setting": "WT TREK-2 channels; Voltage 0.075", "value": 0.924}, {"measurement": "Normalized current", "setting": "WT TREK-2 channels; Voltage 0.080", "value": 0.944}, {"measurement": "Normalized current", "setting": "WT TREK-2 channels; Voltage 0.085", "value": 0.936}, {"measurement": "Normalized current", "setting": "WT TREK-2 channels; Voltage 0.090", "value": 0.949}, {"measurement": "Normalized current", "setting": "WT TREK-2 channels; Voltage 0.095", "value": 0.963}, {"measurement": "Normalized current", "setting": "WT TREK-2 channels; Voltage 0.100", "value": 0.966}, {"measurement": "Normalized current", "setting": "WT TREK-2 channels; Voltage 0.105", "value": 0.964}, {"measurement": "Normalized current", "setting": "WT TREK-2 channels; Voltage 0.110", "value": 0.962}, {"measurement": "Normalized current", "setting": "WT TREK-2 channels; Voltage 0.115", "value": 0.961}, {"measurement": "Normalized current", "setting": "WT TREK-2 channels; Voltage 0.120", "value": 0.949}, {"measurement": "Normalized current", "setting": "WT TREK-2 channels; Voltage 0.125", "value": 0.915}, {"measurement": "Normalized current", "setting": "WT TREK-2 channels; Voltage 0.130", "value": 0.965}, {"measurement": "Normalized current", "setting": "WT TREK-2 channels; Voltage 0.135", "value": 0.962}, {"measurement": "Normalized current", "setting": "WT TREK-2 channels; Voltage 0.140", "value": 0.941}, {"measurement": "Normalized current", "setting": "WT TREK-2 channels; Voltage 0.145", "value": 0.970}, {"measurement": "Normalized current", "setting": "WT TREK-2 channels; Voltage 0.150", "value": 0.939}, {"measurement": "Normalized current", "setting": "WT TREK-2 channels; Voltage -0.005", "value": 0.115}, {"measurement": "Normalized current", "setting": "WT TREK-2 channels; Voltage -0.010", "value": 0.097}, {"measurement": "Normalized current", "setting": "WT TREK-2 channels; Voltage -0.015", "value": 0.086}, {"measurement": "Normalized current", "setting": "WT TREK-2 channels; Voltage -0.020", "value": 0.073}, {"measurement": "Normalized current", "setting": "WT TREK-2 channels; Voltage -0.025", "value": 0.072}, {"measurement": "Normalized current", "setting": "WT TREK-2 channels; Voltage -0.030", "value": 0.066}, {"measurement": "Normalized current", "setting": "WT TREK-2 channels; Voltage -0.035", "value": 0.062}, {"measurement": "Normalized current", "setting": "WT TREK-2 channels; Voltage -0.040", "value": 0.062}, {"measurement": "Normalized current", "setting": "WT TREK-2 channels; Voltage -0.045", "value": 0.059}, {"measurement": "Normalized current", "setting": "WT TREK-2 channels; Voltage -0.050", "value": 0.058}, {"measurement": "Normalized current", "setting": "WT TREK-2 channels; Voltage -0.055", "value": 0.055}, {"measurement": "Normalized current", "setting": "WT TREK-2 channels; Voltage -0.060", "value": 0.055}, {"measurement": "Normalized current", "setting": "WT TREK-2 channels; Voltage -0.065", "value": 0.050}, {"measurement": "Normalized current", "setting": "WT TREK-2 channels; Voltage -0.070", "value": 0.049}, {"measurement": "Normalized current", "setting": "WT TREK-2 channels; Voltage -0.075", "value": 0.050}, {"measurement": "Normalized current", "setting": "WT TREK-2 channels; Voltage -0.080", "value": 0.048}, {"measurement": "Normalized current", "setting": "WT TREK-2 channels; Voltage -0.085", "value": 0.046}]}]}
